We go through four compounds from patent publication US20220402872A1, “PHOTOPOLYMERIZABLE ANTIBACTERIAL MONOMER” (UNIVERSITA' DEGLI STUDI DI TRIESTE, priority 2019, published 2022).

What all share (format): cell-based
Assay [1] has as its system S. mutans (ATCC 25175). Kind of assay: Determination of the minimum bactericidal concentration (MBC). Particulars: Streptococcus mutans, ATCC25175; against S. Mutans. The procedure: (§1) A 20 mg/mL compound stock solution in BHI medium is prepared. In a 96-well plate, the compound solution is diluted serially (the concentration is halved at each step) to obtain the following final concentrations after addition of the bacteria suspension: 10 mg/mL; 5 mg/mL; 2.5 mg/mL; 1.25 mg/mL; 0.625 mg/mL; 0.31 mg/mL; 0.15 mg/mL; 0.08 mg/mL; 0.04 mg/mL; 0.02 mg/mL. Wells containing a mixture of penicillin and streptomycin antibiotics are used as a positive control. Compound-free medium is used as a growth control. A volume of bacterial suspension equal to 0.5*10^6 bacteria/mL is added to each well containing the compound and the controls. The dish is incubated at 37° C. for 24 hours. The lowest compound concentration at which no turbidity of the culture medium is evident is defined as MIC. For the calculation of MBC, aliquots equal to 50 μL are taken from the wells showing evident no turbidity of the medium and are plated on BHI agar plates for 48 hours. […] Bacterial suspensions taken from the positive control (growth medium only) and the negative control (growth medium with Ampicilin 100 μg/mL) are also seeded.
(§2) In order to test the antibacterial properties of the compounds prepared in Examples 1-8, on colonies of S. mutans (ATCC 25175), a bacterium commonly found in the human oral cavity, a test was set up to determine the minimum inhibitory concentration (MIC) and the minimum bactericidal concentration (MBC) according to the “Determination of minimum inhibitory concentration (MIC)” methods and “Determination of minimum bactericidal concentration (MBC)” described above.

The test system of assay [2] is S. mutans (ATCC 25175). The experiment in a line: Determination of the minimum inhibitory concentration (MIC). The settings on record: Streptococcus mutans, ATCC25175; against S. Mutans. As for the experimental part: (§3) A colony of bacterium taken from agar plate is inoculated in Brain Hearth Infusion medium (BHI) and grown overnight at 37° C. The next day, the bacteria are diluted in fresh medium containing the phenol red indicator, up to a density of 10^6 bacteria/mL.
(§4) A stock solution of 2 mg/mL of compound is prepared in BHI medium containing phenol red.
(§5) In a 96-well plate, the compound stock solution is diluted serially (the concentration is halved at each step) to obtain the following final concentrations after addition of the bacteria suspension: 1 mg/mL; 0.5 mg/mL; 0.25 mg/mL; 0.125 mg/mL; 0.065 mg/mL; 0.032 mg/mL; 0.016 mg/mL; 0.008 mg/mL; 0.004 mg/mL; 0.002 mg/mL; 0.001 mg/mL. A compound-free medium is used as a growth control. A volume of bacterial suspension equal to 0.5*10^6 bacteria/mL is added to each well containing the compound and the control. The dish is incubated at 37° C. for 24 hours. Bacterial growth in each well is detected by the phenol red, which turns from red to yellow following acidification of the medium induced by bacterial metabolism. The lowest concentration of the compound causing no evident color change corresponds to the MIC.
as §2

Assay [3] relates to S. Mitis (ATCC 49456). The description is as above. Particulars: Streptococcus mitis, ATCC49456. The procedure: as §3, §4, §5
(§6) The compounds according to Examples 1, 3, 5, 6, and 7 were tested on bacterial strains different from S. mutans with the same methods described above, obtaining the MIC and MBC values reported in Table 2.

Assay [4] concerns E. coli (ATCC25922). The assay is described as above. Particulars: Escherichia coli. As for the experimental part:
as §3, §4, §5, §6

Assay [5] relates to S. Aureus (ATCC 25923). The description is as above. Particulars: Staphylococcus aureus, ATCC25923. As for the experimental part: as §3, §4, §5, §6
For assay [6], the system named is S. Sanguis (ATCC 10556). Described as above. As for the experimental part:
as §3, §4, §5, §6

In assay [7] the test system is S. Mitis (ATCC 49456). Kind of assay: Determination of the minimum bactericidal concentration (MBC). As for the experimental part: as §1, §6
The test system of assay [8] is E. coli (ATCC25922). The assay is described as above. The procedure: as §1, §6
The test system of assay [9] is S. Aureus (ATCC 25923). Described as above. As for the experimental part: as §1, §6
The subject of assay [10] is S. Sanguis (ATCC 10556). The assay is described as above. As for the experimental part: as §1, §6
The subject of another assay is bacteria grown on agar. Kind of assay: Determination of bacterial inhibition - agar diffusion test of primer formulations. Particulars: for zone of inhibition at 1 % strength: 1% by weight of compound; for zone of inhibition at 5 % strength: 5% by weight of compound; for zone of inhibition at 10 % strength: 10% by weight of compound. The text has this:
A test adapted from a commonly used method for determining the sensitivity of a bacterial strain to antibiotics in solution, known as Kirby-Bauer antibiotic testing or disc diffusion antibiotic sensitivity testing was used (Brown D F, Kothari D (1975), “Comparison of antibiotic discs from different sources”, J. Clin. Pathol. 28 (10): 779-83. Doi: 10.1136 /jcp.28.10.779). The test performed involves the use of discs imbued with a known concentration of the substance under examination that are placed on a layer of bacteria grown on agar. The diffusion of the bactericidal molecule from the disk into the agar causes the inhibition of bacterial growth in the area surrounding the disk itself where the molecule has spread with the formation of what are called zones of growth inhibition. The diameter of these inhibition zones (transparent circular regions in comparison to the bacterial film) is proportional to the antibacterial efficacy of the molecule to its concentration and to its diffusion ability in the medium.
The bactericidal properties of the compounds according to Examples 1, 3, 5, 6 and 7 were tested in various primer-type preparations, using the method “Bacterial inhibition determination-Agar diffusion test” described above. The disk soaked in the tested primer formulation without addition of compounds according to Examples 1, 3, 5, 6 and 7 was used as a negative reference.
For the tests, the following primer-type formulations were used, identified by the following codes: […]

In the assay with S. mutans (ATCC 25175) [1], `C=C(C)C(=O)OCC[N+](C)(C)Cc1ccc(C[N+](C)(C)CCOC(=O)C(=C)C)cc1.[Br-].[Br-]` [Example 8] yielded an MBC of 2500 µg/mL. This compound also registered an MIC in the assay with S. mutans (ATCC 25175) [2] of 2500 µg/mL.

Compound `C=C(C)C(=O)NCCC[N+](C)(C)CCCCCCCCCCCC[N+](C)(C)CCCNC(=O)C(=C)C.[F-].[F-]` [Example 4] registered an MBC against S. mutans (ATCC 25175) [1] of 156 µg/mL. In the assay with S. mutans (ATCC 25175) [2], this compound had an MIC of 156 µg/mL.

In the case of `C=C(C)C(=O)NCCC[N+](C)(C)CCCCCCCCCCCC[N+](C)(C)CCCNC(=O)C(=C)C.[Br-].[Br-]` [Example 3], the MIC is 620 µg/mL in the assay on S. Mitis (ATCC 49456) [3]; 1250 µg/mL against E. coli (ATCC25922) [4]; 625 µg/mL in the assay with S. Aureus (ATCC 25923) [5]; 620 µg/mL against S. Sanguis (ATCC 10556) [6]; 150 µg/mL against S. mutans (ATCC 25175) [2]. Further, the minimal bactericidal concentration (MBC) against S. mutans (ATCC 25175) [1] turned out to be 310 µg/mL. For the same compound, the MCB was found to be 0.62 mg/mL with S. Mitis (ATCC 49456) [7], 1.25 mg/mL in the assay with E. coli (ATCC25922) [8], 1.25 mg/mL with S. Aureus (ATCC 25923) [9] and 0.62 mg/mL in the assay with S. Sanguis (ATCC 10556) [10]. Besides, the zone of inhibition at 1 % strength with bacteria grown on agar (primer L1A) was 8 mm; with bacteria grown on agar (primer L1B), 0 mm; in the assay with bacteria grown on agar (primer L2A), 6 mm; in the assay with bacteria grown on agar (primer L2B) it was 6 mm; in the assay with bacteria grown on agar (primer R5A), 6 mm; in the assay with bacteria grown on agar (primer R5B), 0 mm. The zone of inhibition at 5 % strength stood at 11 mm with bacteria grown on agar (primer L1A); 7 mm with bacteria grown on agar (primer L1B); 7 mm in the assay with bacteria grown on agar (primer L2A); 7 mm with bacteria grown on agar (primer L2B); 6 mm with bacteria grown on agar (primer R5A); 0 mm with bacteria grown on agar (primer R5B). The zone of inhibition at 10 % strength in the assay with bacteria grown on agar (primer L1A) was 13 mm; in the assay with bacteria grown on agar (primer L1B) it was 10 mm; with bacteria grown on agar (primer L2A), 10 mm; in the assay on bacteria grown on agar (primer L2B), 10 mm; with bacteria grown on agar (primer R5A) it was 8 mm; in the assay on bacteria grown on agar (primer R5B), 8 mm.

As to `C=C(C)C(=O)OCC[N+](C)(C)CCCCCCCCCCCC[N+](C)(C)CCOC(=O)C(=C)C` [Example 2], the MBC in the assay with S. mutans (ATCC 25175) [1] was determined as 313 µg/mL. The MIC against S. mutans (ATCC 25175) [2] is 156 µg/mL.
